Reference: ChEMBL document CHEMBL1201862, “PubChem BioAssay data set” (2004)
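Exposure lasted 48 hours, with cells grown in 96-well plates and compounds tested at five concentrations. GI50: concentration for 50% inhibition of growth.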 Active and inactive are the calls of the source. Cut-off read from the data, not from the text of the source: active = GI50 up to about 1.1 µM and inactive = higher.

Experiments:
Test in all cases: growth of human tumour cells (NCI), 48 h
786-0 = tested on: 786-0
A498 = tested on: A498
A549 = tested on: A549
BT-549 = tested on: BT-549
CAKI-1 = tested on: CAKI-1
CCRF-CEM = tested on: CCRF-CEM
COLO 205 = tested on: COLO 205
DU-145 = tested on: DU-145
EKVX = tested on: EKVX
HCC 2998 = tested on: HCC 2998
HCT-116 = tested on: HCT-116
HCT-15 = tested on: HCT-15
HL-60 = tested on: HL-60
HT-29 = tested on: HT-29
Hs-578T = tested on: Hs-578T
IGROV-1 = tested on: IGROV-1
K562 = tested on: K562
KM12 = tested on: KM12
LOX IMVI = tested on: LOX IMVI
M14 = tested on: M14
MCF7 = tested on: MCF7
MDA-MB-231 = tested on: MDA-MB-231
MDA-MB-435 = tested on: MDA-MB-435
MDA-N = tested on: MDA-N
MOLT-4 = tested on: MOLT-4
Malme-3M = tested on: Malme-3M
NCI-H226 = tested on: NCI-H226
NCI-H23 = tested on: NCI-H23
NCI-H460 = tested on: NCI-H460
NCI-H522 = tested on: NCI-H522
NCI/ADR-RES = tested on: NCI/ADR-RES
OVCAR-3 = tested on: OVCAR-3
OVCAR-4 = tested on: OVCAR-4
OVCAR-5 = tested on: OVCAR-5
OVCAR-8 = tested on: OVCAR-8
PC-3 = tested on: PC-3
RPMI-8226 = tested on: RPMI-8226
RXF 393 = tested on: RXF 393
SF-268 = tested on: SF-268
SF-539 = tested on: SF-539
SK-MEL-28 = tested on: SK-MEL-28
SK-MEL-2 = tested on: SK-MEL-2
SK-MEL-5 = tested on: SK-MEL-5
SK-OV-3 = tested on: SK-OV-3
SN12C = tested on: SN12C
SNB-19 = tested on: SNB-19
SNB-75 = tested on: SNB-75
SR = tested on: SR
SW-620 = tested on: SW-620
T47D = tested on: T47D
TK-10 = tested on: TK-10
U-251 = tested on: U-251
UACC-257 = tested on: UACC-257
UACC-62 = tested on: UACC-62
UO-31 = tested on: UO-31

Measured: GI50

Cc1cc(C)c(-n2[nH]c(=O)n(C)c2=O)c(C)c1
inactive: 786-0 > 100 µM | A498 > 100 µM | A549 > 100 µM | BT-549 > 100 µM | CAKI-1 > 100 µM | CCRF-CEM > 100 µM | COLO 205 > 100 µM | DU-145 > 100 µM | EKVX > 100 µM | HCC 2998 > 100 µM | HCT-116 > 100 µM | HL-60 > 100 µM | HT-29 > 100 µM | Hs-578T > 100 µM | IGROV-1 > 100 µM | K562 > 100 µM | KM12 > 100 µM | LOX IMVI > 100 µM | M14 > 100 µM | MCF7 > 100 µM | MDA-MB-231 > 100 µM | MDA-MB-435 > 100 µM | MDA-N > 100 µM | MOLT-4 > 100 µM | Malme-3M > 100 µM | NCI-H226 > 100 µM | NCI-H23 > 100 µM | NCI-H460 > 100 µM | NCI-H522 > 100 µM | NCI/ADR-RES > 100 µM | OVCAR-3 > 100 µM | OVCAR-4 > 100 µM | OVCAR-5 > 100 µM | OVCAR-8 > 100 µM | PC-3 > 100 µM | RPMI-8226 > 100 µM | RXF 393 > 100 µM | SF-268 > 100 µM | SF-539 > 100 µM | SK-MEL-28 > 100 µM | SK-MEL-2 > 100 µM | SK-MEL-5 > 100 µM | SK-OV-3 > 100 µM | SN12C > 100 µM | SNB-19 > 100 µM | SNB-75 > 100 µM | SR > 100 µM | SW-620 > 100 µM | T47D > 100 µM | TK-10 > 100 µM | U-251 > 100 µM | UACC-257 > 100 µM | UACC-62 > 100 µM | UO-31 > 100 µM
> 100 µM: HCT-15
